According to patent US20240000754A1, “METHODS OF TREATMENT OF LIVER FAILURE” (GENFIT, priority 2020, published 2024):

Assays:
[1] = test system: TAA induced cirrhosis in rats; assay: TAA-induced cirrhosis in rats: liver function and fibrosis; assay type: in vivo; details: 16 weeks TAA
[2] = test system: rats with BDL+LPS-induced ACLF; assay: Kidney function in BDL+LPS-induced ACLF in rats; assay type: in vivo; details: NTZ 100 mg/kg gavage, 3 hours post-LPS
Description: BDL surgery of rats and acute decompensation were performed as in the previous example.
Renal injury was evaluated by serum cystatin C concentrations determined by ELISA (Mouse/Rat Cystatin C Immunoassay Quantikine® ELISA, MSCTC0, R&D Systems).

[3] = test system: rats with CCl4+LPS-induced ACLF; assay: Example 8: renal function markers in CCl4+LPS-induced ACLF in rats; assay type: in vivo; details: 15 weeks CCl4 + LPS, NTZ 50 mg/kg BID 3 days, 24 h after LPS
Description: Cirrhosis decompensation often associates with alterations of kidney functions. […] Briefly, ACLF was induced by lipopolysaccharide (LPS) injection in rats with advanced liver fibrosis/cirrhosis induced by repeated carbon tetrachloride (CCl4) administrations for 15 weeks.
The protocol study included 4 phases: • 1) Pre-sensitization phase: phenobarbital (P5178, Sigma Aldrich) was added to the drinking water ([…]) of 32 4-week-old male Sprague-Dawley rats (˜200 gr, Janvier Lab) for 2 weeks in order to activate cytochrome enzymes that metabolize CCl4. • 2) Induction of liver fibrosis: chronic liver damages were induced by repeated (twice a week) oral CCl4 (ref: 289116, Sigma Aldrich; diluted in olive oil) administrations (increasing doses starting with 0.10 ml/kg, adding 0.05-0.10 ml/kg at each administration to reach 0.85 ml/kg at 7 weeks and thereafter) for up to 15 weeks, with final doses as follows:
• 3) Treatment phase: after 15 weeks of CCl4 administration, CCl4 gavage was stopped one week before LPS administration.
During the first hours following LPS administration, each animal was continuously observed in order to assess the degree of severity of the inflammatory response and pain. The appearance of the animal (change in fur, skin color), the degree of activity and vigilance (response to a stimulus, opening of the eyelids, activity . . . ), gait and attitude were monitored. Any animal showing evident signs of suffering and close to death was euthanized. […] All surviving animals were euthanized 24 h after LPS challenge for plasma and tissue analyses. […]
Renal injury was evaluated by plasma creatinine, urea and cystatin C concentrations. Plasma creatinine and urea concentrations were measured using the appropriate Randox kits (CR 8316, UR 8334, respectively) for Daytona plus automate (Randox, cat #BR 8377) using the manufacturer instructions. Plasma cystatin C concentration was determined by ELISA (Mouse/Rat Cystatin C Immunoassay Quantikine® ELISA, MSCTC0, R&D Systems).

[4] = test system: rats with BDL+LPS-induced ACLF; assay: Brain edema in BDL+LPS-induced ACLF in rats; assay type: in vivo; details: LPS 1 μg/kg i.p., NTZ 100 mg/kg gavage just before LPS, 3 hours post-LPS
Description: BDL surgery was performed on 37 Sprague Dawley rats weighing approximately 270 g at Charles River laboratory (France). After anesthesia with isoflurane (Vetflurane, Alcyon, France), and cutaneous application of 2% lidocaine (Alcyon), a median laparotomy was performed to expose the liver and duodenum. The main bile duct was identified and dissected. After that, the bile duct was ligated in two parts: a first ligation was made in the middle of the bile duct, and the second ligation was made above the entrance of the pancreatic duct. The bile duct was then cut in the middle, to avoid recanalization.
The animals were then transferred to Genfit's animal facility (France) after a minimum of 5 days of recovery post-surgery. […] Unoperated animals were included in the study as healthy controls.
Twenty-two days after BDL surgery, acute decompensation was induced by intraperitoneal administration of 1 μg/kg LPS (Escherichia coli O111:64, Sigma-Aldrich, Germany). Four rats with BDL received phosphate buffer saline (PBS, Fisher Scientific, USA) instead of LPS to be used as BDL controls. Each animal was continuously observed following LPS injection in order to assess the degree of severity of the inflammatory response and pain. […]

[5] = test system: rats with CCl4+LPS-induced ACLF; assay: Example 9: CCl4+LPS-induced acute-on-chronic liver failure in rats; assay type: in vivo
Description: This study included 4 phases: • 1) Pre-sensitization phase: phenobarbital ([…]) (ref P5178-25G, Sigma-Aldrich) was added to the drinking water of 4-week-old male Sprague-Dawley rats (˜200 g) for 2 weeks prior to CCl4 administration • 2) Induction phase: hepatic severe fibrosis was induced by repeated oral tetrachlorure (CCl4) administrations (twice a week, increasing doses from 0.10 to 0.85 ml/kg, twice weekly) for 10 or 15 weeks, with the same protocol as the protocol described in example 8. • 3) Treatment phase: after 15 weeks of CCl4 administrations, gavage was stopped one week before LPS administration. […] A last dose (50 mg/kg) was administered 30 minutes just before ACLF induction. • 4) ACLF induction: LPS was administrated i.p. at 0.03 mg/kg.
LPS solution (Escherichia coli O111:64, Sigma-Aldrich, Germany) was prepared under a microbiological safety cabinet and was dissolved in phosphate buffer saline (PBS) at 15 μg/mL, aliquoted and frozen until the day of experiment. LPS was administered at 2 m L/kg to the rats.
38 male Sprague-Dawley rats (Janvier Labs, France) have been allocated to this study. Animals had ad libitum access to water and chow diet (ref E15000-04, Ssniff, Germany) all along the study. After 9 weeks of CCl4 administration, animals were randomly allocated to 2 groups according to ammonia and albumin plasmatic levels (in order to have similar means in the two groups).
ACLF was evaluated, at the end of the study, by biochemical analyses of hepatic and renal injury or function biomarkers.
At the end of the study, blood was collected by sublingual vein puncture under light isoflurane anesthesia and transferred to ethylenediamine tetra-acetic acid (EDTA), serum-gel, and lithium heparin tubes. EDTA and lithium heparin tubes containing blood were rapidly centrifuged and the plasma fraction was collected. Plasma aliquot of heparin lithium were snap frozen in liquid nitrogen and stored at −80° C., EDTA-plasma aliquots were stored at −20° C. and serum-gel tubes were kept at room temperature for 30 minutes, centrifuged and stored at −20° C.
Experimental results are expressed as mean±standard deviation and plotted as bar graphs. Comparison between groups was tested using a Student T test for all variables that follows a normal distribution (#: p<0.05; ##: p<0.01; ###: p<0.001). A Welsh test was applied in case of different variances between groups (3a: p<0.05; cm: p<0.01; man: p<0.001). A log-transformation was applied for plasma ALT and AST in all samples to obtain a normal data distribution. For other non-normally distributed variables, a non-parametric Mann-Whitney test was applied ($: p<0.05; $$: p<0.01; $$$: p<0.001). Differences to the Ctrl week 10 (W10) group are notified, if not otherwise specified.

[6] = test system: hepatic transcriptome of mice; assay: Hepatic transcriptomic analysis (RNA-seq) in CDAA/c diet-fed mice treated with NTZ; assay type: in vivo; details: NTZ 100 mg/kg/day versus CDAA/c alone, adjusted p=2.6×10-13
Description: Liver injury was induced in 5-6 week-old male C57Bl/6 mice (Janvier Labs, France) by feeding them a cholesterol (1%) supplemented choline-deficient L-amino acid-defined diet (CDAA/c) (Ssniff, Germany) for 12 weeks (n=12). Some animals received from day 1 and throughout the study CDAA/c diet supplemented with NTZ (Interchim, France) (100 mg/kg/day) (n=8). Mice receiving choline supplemented L-amino acid-defined (CSAA) diet served as additional controls (n=6).
Total RNA was isolated from mice livers using Nucleospin® 96 RNA kit (ref 740709.4, Macherey Nagel, France) (n=5). Upon measurement of RNA samples concentration by Multiskan™ GO spectrophotometer (Thermo Scientific, France), the quality was assessed using 2100 Bioanalyser from Agilent (USA). […]
Then reads were aligned on the genome reference (Mus musculus GRCm38.90—GenBank assembly accession GCA_000001635.2) with rnacocktail using hisat2 v.2.1.0 as aligner with default parameters (Sahraeian et al. Nature communications 2017). […]
To identify differentially expressed genes (DE genes), we used R (version 3.4.3) and the DESEq2 library (v. 1.18.1). […] Briefly, the count matrix produced by FeatureCounts was analyzed by the DESeqDataSetFromMatrix( ) function followed by the DEseq( ) function from the DESeq2 library. […]

[7] = test system: HepG2 cells; assay: NH4Cl-induced mortality in HepG2 cells (CytoTox-Glow dead cell protease activity); assay type: cell-based, human; details: HepG2, NTZ 0-5 μM, 60 mM and 120 mM NH4Cl, 14 hours
Description: After cell adherence (10 hours), cells were washed with PBS and were incubated in the presence of 0, 60, or 120 mM of NH4Cl (Fluka, France) in DMEM without L-Glutamine and FBS for 14 hours.
Cytotoxicity was measured using CytoTox-Glow™ assay (#G9291, Promega, USA). Briefly, 100 μL of reagent was added per well, and the plates were incubated in the dark at room temperature for 15 min. The CytoTox-Glow™ Assay is a luminescent cytotoxicity assay that measures the relative number of dead cells in cell populations. Luminescence was measured using a Spark microplate reader (#30086376, Tecan, USA). The amount of luminescence (RLU) directly correlates with the percentage of cells undergoing cytotoxic stress.

[8] = test system: mice with acetaminophen (APAP) intoxication; assay: Acetaminophen-induced acute liver failure in mice; assay type: in vivo; details: APAP 300 mg/kg i.p., NTZ 50 mg/kg gavage 30 minutes before, 6 hours after APAP
Description: Acute liver failure was induced by administration of toxic dose of acetaminophen (APAP) in mice. After a 5-day acclimation period, 8 week-old C57BL/6J male mice (Janvier, France) were stratified into 3 groups of 10 mice according to their body weight. All mice were fasted overnight before the administration of 300 mg/kg APAP by intraperitoneal injection. […] Mice had free access to food and water right after APAP injection. Six hours after APAP injection, blood was collected in all mice on heparin by retro-orbital sinus punction under anesthesia. Liver injury was assessed by plasma aspartate aminotransferase (AST) determined using a Horiba Pentra 400 machine and related Pentra assay kit (Horiba France SAS, France). Animals were sacrificed 24 hours post-APAP administration by cervical dislocation, exsanguinated with saline and liver samples were collected and weighed.

[9] = test system: cirrhotic rats after LPS injection (ACLF); assay: ACLF model: LPS injection in TAA-cirrhotic rats; assay type: in vivo
Description: Male Sprague Dawley rats (175-200 g) (Janvier Labs, France) received intraperitoneal injections of thioacetamide (TAA) 3 times a week at the dose of 150 mg/kg during the first week and then at 200 mg/kg during 14 weeks to induce cirrhosis. Rats were stratified to treatment groups (n=5 per group) based on mean plasma levels of fibrosis markers (alpha-2 macroglobulin and Metallopeptidase Inhibitor 1 (TIMP1)) and liver function tests (plasma total bile acid and albumin) obtained from sublingual blood sampling.
After cirrhosis induction, rats received a single intraperitoneal injection of 0.05 mg/kg lipopolysaccharide (LPS from Escherichia coli O111:64, Sigma-Aldrich) to induce ACLF, one week after TAA administration was stopped. […] Plasma were obtained from sublingual blood sampling just before sacrifice.
The concentration of total bile acids was measured using the appropriate Randox kit for Daytona Plus automate (Randox, cat #BI 3863). In the presence of Thio-NAD, the enzyme 3-alpha hydroxysteroid dehydrogenase (3-a HSD) converts bile acids to 3-keto steroids and Thio-NADH. The reaction is reversible and 3-a HSD could convert 3-keto steroids and Thio-NADH to bile acids and Thio-NAD. In the presence of excess NADH, the enzyme cycling occurs efficiently and the rate of formation of Thio-NADH is determined by measuring specific change of absorbance at 405 nm.

[10] = NTZ 30 mg/kg/day in diet for last 4 weeks, versus TAA control

**Q.** With `CC(=O)Oc1ccccc1C(=O)Nc1ncc([N+](=O)[O-])s1` [NTZ, nitazoxanide] as the molecule, how does the Collagen proportionate area ([1]; NTZ 30 mg/kg/day for last 4 weeks, TAA control 7.74±0.38%, p=0.77) read?
**A.** 7.53±0.64%

**Q.** What about the Plasma albumin [1, 10] of the same molecule?
**A.** rescued

**Q.** And the Plasma total bilirubin [1, 10]?
**A.** drastically decreased

**Q.** And the “Serum cystatin C” value [2]?
**A.** drastically reduced cystatin C, almost to the level of healthy controls

**Q.** What about the Plasma creatinine [3] of the same molecule?
**A.** restoring creatinine, urea and cystatin C levels to the levels of the olive oil controls

**Q.** What about the “Plasma cystatin C” value [3] of the same molecule?
**A.** restoring creatinine, urea and cystatin C levels to the levels of the olive oil controls

**Q.** What about the Plasma urea [3] of the same molecule?
**A.** restoring creatinine, urea and cystatin C levels to the levels of the olive oil controls

**Q.** What about the “Brain water (brain edema, % of water contained in brain)” value [4] of the same molecule?
**A.** remarkably reduced

**Q.** And the “Survival 24 h after LPS injection” value ([5]; rats, 15 weeks CCl4 + LPS 0.03 mg/kg i.p., NTZ 50 mg/kg BID 3 days, same in vehicle group)?
**A.** 60%

**Q.** What about the “Reduction of serum IFNγ” value ([5]; rats, CCl4 15 weeks and LPS, p=0.04) of the same molecule?
**A.** 56%

**Q.** And the “Mortality over 24 hours” value ([5]; rats, CCl4 + LPS, NTZ 50 mg/kg BID 3 days, same in vehicle group (4/10 rats))?
**A.** 40%

**Q.** And the “Change of plasma urea” value ([5]; surviving rats 24 hours post-LPS, LPS-induced renal impairment, p=0.002)?
**A.** −92%

**Q.** What about the “Change of plasma creatinine” value ([5]; surviving rats 24 hours post-LPS, LPS-induced renal impairment, p=0.009) of the same molecule?
**A.** −102%

**Q.** And the “Change of plasma cystatin C” value ([5]; surviving rats 24 hours post-LPS, LPS-induced renal impairment, p=0.02)?
**A.** −166%

**Q.** What about the “Reduction of plasma AST” value ([5]; surviving rats 24 hours post-LPS, NTZ versus vehicle, p=0.005) of the same molecule?
**A.** 87%

**Q.** What about the “Reduction of plasma ALT” value ([5]; surviving rats 24 hours post-LPS, NTZ versus vehicle, p=0.007) of the same molecule?
**A.** 80%

**Q.** What about the “Reduction of total bilirubin” value ([5]; surviving rats 24 hours post-LPS, plasma, p=0.02) of the same molecule?
**A.** 80%

**Q.** What about the “Restoration of albumin production” value ([5]; surviving rats 24 hours post-LPS, plasma, p=0.04) of the same molecule?
**A.** 95%

**Q.** And the “Plasma GGT level” value ([5]; surviving rats 24 hours post-LPS, LPS vehicle 11.2 U/I)?
**A.** < 6.15 U/I

**Q.** And the “Induction of GluI expression” value [6]?
**A.** 1.6 fold

**Q.** What about the “Mortality rate (dead cell protease activity)” value [7] of the same molecule?
**A.** reduced the mortality rate in a dose-dependent manner

**Q.** What about the “Plasma AST” value [8] of the same molecule?
**A.** greatly reduced AST to a level similar to that with NAC

**Q.** And the “Circulating (plasma total) bile acids level” value ([9]; TAA-cirrhotic rats after ACLF induction by LPS, versus vehicle)?
**A.** reduced

**Q.** What about the “Delay of time to death” value ([9]; TAA-cirrhotic rats, LPS 0.05 mg/kg i.p., NTZ oral gavage 50 mg/kg/day BID 3 days plus last dose 30 minutes before LPS) of the same molecule?
**A.** 1 h
